Source: patent publication US11534412B2, “Application of totarol and pharmaceutical composition containing totarol” (Emergopharm SP. Z O.O. SP.K., priority 2017, dated 2022)

Test system: Streptococcus agalactiae - clinical strain
Assay: Determination of the MIC value of totarol, broth dilution in 96-well plates with OD and quantitative culture
Format: cell-based
Settings: for OD, average of 3 measurements / OD: 620 nm
Procedure: Test of antibacterial activity of totarol using DMI (dimethylisosorbide) as a solvent.
1 ml of the suspension was collected to 9 ml of a TSB broth ([…]). Suspensions with a dilution of 10^−6 were prepared in the described way. A suspension with a cell density of 10^5 cfu/ml was selected for further investigations. For each strain, 2 96-well plates were prepared: the first one was intended for the OD measurement, the second one—for quantitative culture on solid media. • A/ to wells B1-D1, B2-D2 and B-D 4-11, 100 µl of the broth were added; • B/ to wells B3-D3, 200 µl of the broth were added; • C/ to wells B1-D1, 1 µl of stock I was added; • D/ to wells B2-D2, 1 µl of stock II was added; • E/ to wells B3-D3, 2 µl of stock III were added. Using a multichannel pipette, 100 µl of the sample were collected from each of the B3-D3 wells and placed in wells B4-D4 (mixing by sucking the content in and letting it out for 5 times). The pipette tips were replaced and 100 µl of the content were collected from of the B4-D4 wells, and placed in wells B5-D5, mixing as previously. These operations were repeated through the wells B11-D11. The content in the B11-D11 wells was mixed, and 100 µl of the fluid were collected and discarded. This way, a series of dilutions of totarol samples in DMI in the range of 0.32% to 0.0004% was obtained. Then, 100 µl of a corresponding bacterial culture were added to the wells B, C, D 1-11. In consequence, a change in the final concentration range occurred, to 0.16%-0.0002%. Control Preparation: • Negative control: 100 µl of the broth+1 pl DMI were added to the Al well. • Positive control (I): 100 µl of the broth with the bacterial culture were added to the wells E1-G1. • Diluent positive control (II): 100 µl of the broth with the bacterial culture+1 pl DMI were added to the wells E2-G2. The OD value in the individual wells was read at the wavelength of 620 nm (read time 0). From the second 96-well plate, a culture was inoculated by a quantitative method from every dilution onto a well with a proper solid medium, and incubated for 24 h at 37° C. under aerobic or anaerobic conditions, depending on the strain. The plates were incubated under aerobic conditions or in an atmosphere of an elevated CO2 concentration (for the strains requiring it) in an incubator at 37° C. The OD was read after 8 h, 16 h, and 24 h, respectively. Before every OD measurement, the contents of the wells were mixed delicately. In parallel to the OD readout, cultures we inoculated from the second 96-well plate, from every dilution, into plates with a proper solid medium, and incubated for 24 h at 37° C., under aerobic or anaerobic conditions. For the analysis of the experimental results, an average value of the OD measurement obtained from three repetitions in the individual times (0, 8, 16, and 24 h) for the individual microbes (Gardnerella vaginalis, Streptococcus agalactiae, Enterococcus faecalis, Lactobacillus gasseri/plantarum) was taken. Additionally, the number of bacteria grown on solid media was taken into account. The results of the tests confirm the specific, concentration-dependent selectiveness, and the high antibacterial effectiveness of totarol against the pathogenic microorganisms: Gardnerella vaginalis, Streptococcus agalactiae, Enterococcus faecalis at low MIC values safe for bacteria of the Lactobacillus genus.

CC(C)c1c(O)ccc2c1CC[C@H]1C(C)(C)CCC[C@]21C [Totarol, totarol]
MIC value (S. agalactiae): 0.0013% | Viable bacterial count by quantitative culture (cfu/ml) (totarol 0.0002%, 0 h): 3.4 × 10^5 cfu/ml | OD, average of 3 measurements (totarol 0.0002%, 0 h): 0.289 | Viable bacterial count by quantitative culture (cfu/ml) (totarol 0.0002%, 8 h): 4 × 10^6 cfu/ml | OD, average of 3 measurements (totarol 0.0002%, 8 h): 0.314 | Viable bacterial count by quantitative culture (cfu/ml) (totarol 0.0002%, 16 h): 1.1 × 10^6 cfu/ml | OD, average of 3 measurements (totarol 0.0002%, 16 h): 0.498 | Viable bacterial count by quantitative culture (cfu/ml) (totarol 0.0002%, 24 h): 1 × 10^7 cfu/ml | OD (totarol 0.0002%, 24 h): 0.682 | Viable bacterial count by quantitative culture (cfu/ml) (totarol 0.0004%, 0 h): 6 × 10^5 cfu/ml | OD, average of 3 measurements (totarol 0.0004%, 0 h): 0.305 | Viable bacterial count by quantitative culture (cfu/ml) (totarol 0.0004%, 8 h): 6 × 10^6 cfu/ml | OD, average of 3 measurements (totarol 0.0004%, 8 h): 0.318 | Viable bacterial count by quantitative culture (cfu/ml) (totarol 0.0004%, 16 h): 9.1 × 10^5 cfu/ml | OD, average of 3 measurements (totarol 0.0004%, 16 h): 0.493 | Viable bacterial count by quantitative culture (cfu/ml) (totarol 0.0004%, 24 h): 2 × 10^7 cfu/ml | OD (totarol 0.0004%, 24 h): 0.668 | Viable bacterial count by quantitative culture (cfu/ml) (totarol 0.0007%, 0 h): 4.5 × 10^5 cfu/ml | OD, average of 3 measurements (totarol 0.0007%, 0 h): 0.297 | Inoculation cfu/ml (totarol 0.0007%, 8 h): 6 × 10^4 cfu/ml | OD, average of 3 measurements (totarol 0.0007%, 8 h): 0.319 | Viable bacterial count by quantitative culture (cfu/ml) (totarol 0.0007%, 16 h): 3.5 × 10^6 cfu/ml | OD, average of 3 measurements (totarol 0.0007%, 16 h): 0.630 | Viable bacterial count by quantitative culture (cfu/ml) (totarol 0.0007%, 24 h): 6 × 10^7 cfu/ml | OD (totarol 0.0007%, 24 h): 0.941 | Viable bacterial count by quantitative culture (cfu/ml) (totarol 0.0013%, 0 h): 3.3 × 10^5 cfu/ml | OD, average of 3 measurements (totarol 0.0013%, 0 h): 0.299 | Viable bacterial count by quantitative culture (cfu/ml) (totarol 0.0013%, 8 h): 0 cfu/ml | OD, average of 3 measurements (totarol 0.0013%, 8 h): 0.302 | Viable bacterial count by quantitative culture (cfu/ml) (totarol 0.0013%, 16 h): 0 cfu/ml | OD, average of 3 measurements (totarol 0.0013%, 16 h): 0.302 | Viable bacterial count by quantitative culture (cfu/ml) (totarol 0.0013%, 24 h): 0 cfu/ml | OD (totarol 0.0013%, 24 h): 0.302 | Viable bacterial count by quantitative culture (cfu/ml) (totarol 0.0025%, 0 h): 2.6 × 10^5 cfu/ml | OD, average of 3 measurements (totarol 0.0025%, 0 h): 0.289 | Viable bacterial count by quantitative culture (cfu/ml) (totarol 0.0025%, 8 h): 0 cfu/ml | OD, average of 3 measurements (totarol 0.0025%, 8 h): 0.290 | Viable bacterial count by quantitative culture (cfu/ml) (totarol 0.0025%, 16 h): 0 cfu/ml | OD, average of 3 measurements (totarol 0.0025%, 16 h): 0.291 | Viable bacterial count by quantitative culture (cfu/ml) (totarol 0.0025%, 24 h): 0 cfu/ml | OD (totarol 0.0025%, 24 h): 0.291 | Viable bacterial count by quantitative culture (cfu/ml) (totarol 0.005%, 0 h): 1.5 × 10^5 cfu/ml | OD, average of 3 measurements (totarol 0.005%, 0 h): 0.288 | Viable bacterial count by quantitative culture (cfu/ml) (totarol 0.005%, 8 h): 0 cfu/ml | OD, average of 3 measurements (totarol 0.005%, 8 h): 0.292 | Viable bacterial count by quantitative culture (cfu/ml) (totarol 0.005%, 16 h): 0 cfu/ml | OD, average of 3 measurements (totarol 0.005%, 16 h): 0.296 | Viable bacterial count by quantitative culture (cfu/ml) (totarol 0.005%, 24 h): 0 cfu/ml | OD (totarol 0.005%, 24 h): 0.300 | Viable bacterial count by quantitative culture (cfu/ml) (totarol 0.01%, 0 h): 10^5 cfu/ml | OD, average of 3 measurements (totarol 0.01%, 0 h): 0.297 | Viable bacterial count by quantitative culture (cfu/ml) (totarol 0.01%, 8 h): 0 cfu/ml | OD, average of 3 measurements (totarol 0.01%, 8 h): 0.295 | Viable bacterial count by quantitative culture (cfu/ml) (totarol 0.01%, 16 h): 0 cfu/ml | OD, average of 3 measurements (totarol 0.01%, 16 h): 0.301 | Viable bacterial count by quantitative culture (cfu/ml) (totarol 0.01%, 24 h): 0 cfu/ml | OD (totarol 0.01%, 24 h): 0.307 | Viable bacterial count by quantitative culture (cfu/ml) (totarol 0.02%, 0 h): 10^5 cfu/ml | OD, average of 3 measurements (totarol 0.02%, 0 h): 0.318 | Viable bacterial count by quantitative culture (cfu/ml) (totarol 0.02%, 8 h): 0 cfu/ml | OD, average of 3 measurements (totarol 0.02%, 8 h): 0.323 | Viable bacterial count by quantitative culture (cfu/ml) (totarol 0.02%, 16 h): 0 cfu/ml | OD, average of 3 measurements (totarol 0.02%, 16 h): 0.324 | Viable bacterial count by quantitative culture (cfu/ml) (totarol 0.02%, 24 h): 0 cfu/ml | OD (totarol 0.02%, 24 h): 0.324 | Viable bacterial count by quantitative culture (cfu/ml) (totarol 0.04%, 0 h): 3 × 10^5 cfu/ml | OD, average of 3 measurements (totarol 0.04%, 0 h): 0.406 | Viable bacterial count by quantitative culture (cfu/ml) (totarol 0.04%, 8 h): 0 cfu/ml | OD, average of 3 measurements (totarol 0.04%, 8 h): 0.535 | Viable bacterial count by quantitative culture (cfu/ml) (totarol 0.04%, 16 h): 0 cfu/ml | OD, average of 3 measurements (totarol 0.04%, 16 h): 0.489 | Viable bacterial count by quantitative culture (cfu/ml) (totarol 0.04%, 24 h): 0 cfu/ml | OD (totarol 0.04%, 24 h): 0.405 | Viable bacterial count by quantitative culture (cfu/ml) (totarol 0.08%, 0 h): 5 × 10^5 cfu/ml | OD, average of 3 measurements (totarol 0.08%, 0 h): 0.563 | Viable bacterial count by quantitative culture (cfu/ml) (totarol 0.08%, 8 h): 0 cfu/ml | OD, average of 3 measurements (totarol 0.08%, 8 h): 0.564 | Viable bacterial count by quantitative culture (cfu/ml) (totarol 0.08%, 16 h): 0 cfu/ml | OD, average of 3 measurements (totarol 0.08%, 16 h): 0.540 | Viable bacterial count by quantitative culture (cfu/ml) (totarol 0.08%, 24 h): 0 cfu/ml | OD (totarol 0.08%, 24 h): 0.430 | Viable bacterial count by quantitative culture (cfu/ml) (totarol 0.16%, 0 h): 2 × 10^5 cfu/ml | OD, average of 3 measurements (totarol 0.16%, 0 h): 0.512 | Viable bacterial count by quantitative culture (cfu/ml) (totarol 0.16%, 8 h): 0 cfu/ml | OD, average of 3 measurements (totarol 0.16%, 8 h): 0.605 | Viable bacterial count by quantitative culture (cfu/ml) (totarol 0.16%, 16 h): 0 cfu/ml | OD, average of 3 measurements (totarol 0.16%, 16 h): 0.569 | Viable bacterial count by quantitative culture (cfu/ml) (totarol 0.16%, 24 h): 0 cfu/ml | OD (totarol 0.16%, 24 h): 0.615
